Results as given in patent publication US5602141A, “Camptothecin derivatives and process for their preparation” (Pharmacia & Upjohn S.P.A., priority 1994, dated 1997).

What was measured:
[1] = test system: Topoisomerase I; conditions: Wani et al. 1987; Hsiang et al. 1989; cited from earlier work
[2] = Slichenmyer et al. 1993; cited from earlier work
[3] = test system: L1210 murine leukemia cells; assay: Method (a): cytotoxic activity on L1210 murine leukemia cells, 48 h exposure, Coulter Counter; type: cell-based; conditions: Mus musculus, 48 h at 37° C., mean of 3 different experiments, read-out: IC50 (dose causing 50% inhibition of cell growth relative to untreated controls)
Description: Method (a): Evaluation of Cytotoxic Activity
L1210 murine leukemia cells were grown in vitro as a stationary suspension in RPMI 1640 medium supplemented with 10% fetal calf serum, 2 mM L-glutamine, 10 μM B-mercaptoethanol, 100 UI/ml penicillin and 100 μg streptomycin. For assaying the cytotoxic activity, exponentialily growing cells were seeded at the concentration of 1×10^5 cells/ml and exposed to graded doses of the compounds under evaluation for 48 h at 37° C. in an humidified atmosphere of 5% CO2. The number of surviving cells was determined with a Coulter Counter; results are expressed as IC50 (dose causing 50% inhibition of cell growth in treated cultures relative to untreated controls after 48 h treatment).
In this assay, 9-(iminomethyl-amino)-camptothecin (internal code FCE 28536) and 9-(dimethylamino-methyleneamino)-camptothecin (internal code FCE 29006) were tested and the obtained results, which represent the mean of 3 different experiments, are reported on Table 2 below.

[4] = test system: L1210 murine leukemia; assay: Method (b): antitumor (antileukemic) activity, L1210 murine leukemia implanted ip into CD2F1 mice, median survival time; type: in vivo; conditions: 24 h after tumor cells implant (day 1)
Description: Method (b): Evaluation of Antitumor Activity
L1210 murine leukemia was maintained in DBA2 mice by weekly ip transplants of 10^5 cells/mouse. For assaying the antileukemic activity, […] were implanted ip into CD2F1 mice; graded doses of the compounds under evaluation were administered ip 24 h after tumor cells implant on day 1 controls receiving vehicle alone.
The activity of the drugs was determined evaluating the median survival time (MST) of each group of mice.
The obtained results, expressed as % T/C, are reported on Table 3 below.

SMILES | antitumor activity by the inhibition of Topoisomerase I [1] | solubility in aqueous solutions [2] | IC50 [3] | % T/C (MST treated mice/MST control mice × 100) ([4]; 5 mg/kg ip) | % T/C (MST treated mice/MST control mice × 100) ([4]; 10 mg/kg ip) | % T/C (MST treated mice/MST control mice × 100) ([4]; 15 mg/kg ip)
CC[C@@]1(O)C(=O)OCc2c1cc1n(c2=O)Cc2cc3c(N)cccc3nc2-1 [9-amino camptothecin] | potent antitumor activity by the inhibition of Topoisomerase I | low solubility in aqueous solutions | – | – | – | –
CC[C@@]1(O)C(=O)OCc2c1cc1n(c2=O)Cc2cc3ccccc3nc2-1 [Camptothecin, camptothecin] | potent antitumor activity by the inhibition of Topoisomerase I | low solubility in aqueous solutions | – | – | – | –
CC[C@@]1(O)C(=O)OCc2c1cc1n(c2=O)Cc2cc3c(NC=N)cccc3nc2-1 [FCE 28536, 9-(iminomethyl-amino)-camptothecin] | – | – | 82 nM | 150-163% | 188% | –
CC[C@@]1(O)C(=O)OCc2c1cc1n(c2=O)Cc2cc3c(N=CN(C)C)cccc3nc2-1 [FCE 29006, 9-(dimethylamino-methyleneamino)-camptothecin] | – | – | 120 nM | 150% | 163% | 175%
